# Marks after values point to notes of the source that are not given here. Where no end group is shown, it is not given here.
# Experiments:
# [1] = biological target: T1, PAP2b (Homo sapiens, UniProt O14495); conditions: membrane fraction of 293T cells over-expressing PAP2b; cited from earlier work
# T1 construct: expressed in transfected cells; host or cells: 293T cells (membrane fraction)
# T1 sequence (O14495 1-311): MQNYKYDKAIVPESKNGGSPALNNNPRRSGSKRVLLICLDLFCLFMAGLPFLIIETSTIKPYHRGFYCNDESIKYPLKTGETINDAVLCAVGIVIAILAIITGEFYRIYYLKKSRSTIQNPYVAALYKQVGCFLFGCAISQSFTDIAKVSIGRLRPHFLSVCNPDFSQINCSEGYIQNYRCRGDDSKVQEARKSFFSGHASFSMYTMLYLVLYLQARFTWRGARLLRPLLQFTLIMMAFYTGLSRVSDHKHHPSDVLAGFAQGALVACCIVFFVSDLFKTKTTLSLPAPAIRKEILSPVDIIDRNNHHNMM
# [2] = system: endothelial cells; experiment: Adhesion of endothelial cells to wells coated with GST fusion proteins; format: cell-based, human; conditions: pretreatment 20 μg/ml for 1 h and continued exposure
# Protocol: FIG. 10A: Affinity purified GST-fusion proteins were resolved on SDS±PAGE and stained with Coomassie Blue. FIG. 10B: Integrins were immobilized onto 96-well plates, and various GST-fusion proteins (ligands) were allowed to bind. Bound ligands were incubated with anti-GST antibodies, appropriate substrate added and the color intensity measured. OD values <0.05 were considered to be background binding. Data are expressed as mean±SD (n=4). FIG. 10C: Dose-dependent binding of αvβ3 integrin with recombinant GST-VCIP-RGD. FIGS. 10D-F: Representative photomicrographs of adhesion and spreading of endothelial cells replated onto dishes coated with either fibronectin (FIG. 9D), vitronectin (FIG. 9E) or GST-VCIP-RGD (FIG. 9F). […] Attached cells were stained, washed and absorbances of eluted dyes measured. […] Attached cells were stained, washed and absorbances of eluted dyes determined. […] Data are expressed as mean±S.D.; diamond, P<0.01; asterisk, P<0.001. […]
# For adhesion blocking assays, endothelial cells were detached, washed with PBS and resuspended in M199 media containing 1 mM CaCl2 and 1 mM MgCl2 in the absence of serum or growth factors. […] Absorbances were measured at 540 nm.
# Next, the capacity of VCIP-RGD to bind endothelial cell integrins was evaluated by determining the effect of GST-VCIP fusion proteins on cell adhesion and spreading.
# [3] = system: HEK cells stably expressing pLNCX2-VCIP-RGD (WT); experiment: Cell aggregation of HEK cells stably expressing VCIP constructs (Table 1); format: cell-based; conditions: for size, speed of formation and number of cell aggregates: continuous presence, antibody 25-50 μl/ml, peptides 10-50 nM; for % cell aggregates: WT cells, 48 h, mean ± SD
# Protocol: WT cells were also incubated with several peptides modeled after the VCIP-RGD region. When WT cells were cultured in the continuous presence of an anti-VCIP-RGD antibody (25-50 μl/ml) and NYRCRGDDSK (SEQ ID NO:20) (10-50 nM), the size, the speed of formation and the number of such cell aggregates were reduced (Table 1).
# [4] = system: VCIP; experiment: VCIP mRNA induction by growth factors and cytokines in monolayer cells; format: cell-based, human
# Protocol: FIGS. 1A-M show expression analysis and predicted amino acid sequence of VEGF and type I collagen inducible protein (VCIP). FIG. 1A: HUVECs were embedded into three-dimensional type I collagen gel in the presence of 20% adult human serum, 1× ITS and stimulated with VEGF^165 (100 ng/ml). Total RNA was prepared at the indicated time points. Northern blots were hybridized with a fragment of the VCIP (clone-33A) cDNA probe. The transcript size (3.4 kb) is indicated on the right. The numbers at the bottom of the gel represent the fold increase in VCIP mRNA levels, as compared with untreated cells. […] Total RNA was isolated at indicated time points and subjected to VCIP northern blot analysis. […] FIG. 1E: Poly(A)^+ RNA prepared from various human tissues was subjected to VCIP northern blot analysis by hybridization with the clone-33A cDNA probe. FIG. 1F: The blot shown in FIG. 1E was re-hybridized with a GAPDH probe, showing that equal amounts of RNA were loaded across the lanes. FIG. 1G: Detection of VCIP mRNA by RT-PCR (20 cycles): monolayer endothelial cells were treated for 30 min with: (1) untreated, (2) bFGF (20 ng/ml), (3) VEGF^165 (100 ng/ml), (4) PMA (20 ng/ml), (5) bFGF (20 ng/ml)+VEGF (100 ng/ml), (6) bFGF (20 ng/ml)+PMA (20 ng/ml), (7) VEGF (100 ng/ml)+PMA (20 ng/ml) and (8) bFGF (20 ng/ml)+VEGF (100 ng/ml)+PMA (20 ng/ml). FIGS. 1H-J: RT-PCR analysis of uPAR mRNA (FIG. 1H), β-actin mRNA (FIG. 11) and GAPDH mRNA levels (FIG. 1J) were carried out under the same conditions as described in FIG. 1G. All experiments were repeated at least three times, with similar results. FIG. 1K: Inserts from six recombinant_phage clones are shown, and the relative position of clone 33A is indicated. FIG. 1L: The complete predicted amino acid sequence of VCIP. The putative transmembrane segments are underlined. The N-linked glycosylation site is indicated by an asterisk. The lipid phosphatase catalytic domain is indicated by bold letters and underlined, and the RGD motif is boxed. FIG. 1M: The amino acid sequence of human VCIP (top) is aligned with other proteins containing lipid phosphatase-like catalytic motifs.
# FIGS. 3A-F show VCIP induction by growth factors and cytokines. Indicated monolayer cells were stimulated with various growth factors and cytokines for 6 h in media M199 containing 10% serum+1× ITS. The concentrations of cytokines used were optimized according to their ability to induce Erk2 phosphorylation in western blot analysis: VEGF^165 (100 ng/ml), EGF (20 ng/ml), bFGF (30 ng/ml), TNF-α (15 ng/ml), PMA (10 ng/ml) and IL-1β (25 ng/ml). Total RNA (20 μg per lane) was subjected to northern blot analysis by hybridization with the indicated probes. The uPAR northern blot was included as a control for the cytokines used. Ethidium bromide-stained gels show equal amounts of RNA used (FIGS. 3C and F). Data shown are representative of those obtained in two or three separate experiments.
# VCIP mRNA was most strongly expressed in human heart and placenta, tissues that are highly vascularized (FIG. 1E). Next, expression of VCIP in monolayer endothelial cells treated with bFGF, VEGF and PMA was examined (FIG. 1G). […] This pattern of regulation was identical to that of the human receptor for urokinase plasminogen activator (uPAR) expression (FIG. 1H). β-actin and GAPDH were included as controls and were not regulated under any of these conditions (FIGS. 1I and J).
# To examine VCIP expression by other cell types, endothelial, smooth muscle and epithelial cells (A431) were stimulated in monolayer with various growth factors and cytokines for 6 h. Total RNA was then isolated and subjected to northern blot analysis for VCIP and uPAR (FIG. 3).
# [5] = system: endothelial cells; experiment: Adhesion blocking assay on GST-VCIP-RGD-coated dishes; format: cell-based, human
# [6] = A431 epidermoid carcinoma cells, 6 h, northern blot
# [7] = monolayer endothelial cells, RT-PCR, 30 min
compound,measurement,setting,value
CC(C)NCC(O)COc1cccc2ccccc12 (centres unmarked) [propranolol],effect on phosphatase activity against phosphatidic acid,[1],blocked
"C[C@@H]1C[C@@H]([C@H](O)CC2CC(=O)NC(=O)C2)C(=O)[C@@H](C)C1 [cycloheximide, reference compound]",total number of attached cells,[2],did not decrease the total number of attached cells
NYRCRGDDSK (CHAIN a peptide containing RGD sequence),"size, speed of formation and number of cell aggregates",[3],reduced
same,% cell aggregates,[3]; substance 10 nM,67 ± 15.7%
same,% cell aggregates,[3]; substance 30 nM,46 ± 13.3%
same,% cell aggregates,[3]; substance 50 nM,28 ± 10.5^a %
CCN1C(=O)C=CC1=O [N-ethylmaleimide],effect on phosphatase activity against phosphatidic acid,[1],insensitive
TNF-α,induction of VCIP expression,[4]; [6],had no effect
NYRCRGEDSK (CHAIN a peptide containing a mutated RGD sequence),"size, speed of formation and number of cell aggregates",[3],no reduction in cell aggregation
"O=C(O)CN(CCN(CC(=O)O)CC(=O)O)CC(=O)O [EDTA, reference compound]",detachment of endothelial cells adhered to VCIP,[5]; 2.5 mM (pH 7.4) for 5 min,caused the cells to detach from tissue culture dishes
bFGF: Basic Fibroblast growth factor,induction of VCIP expression,[4]; [6],had no effect
same,induction of VCIP expression,[4]; [7],equally able to induce expression of VCIP
CCCCCCCCCCCCCC(=O)O[C@@H]1[C@@H](C)[C@@]2(O)[C@@H](C=C(CO)C[C@]3(O)C(=O)C(C)=C[C@@H]23)[C@@H]2C(C)(C)[C@]12OC(C)=O [PMA],induction of VCIP expression,[4]; [6],strongly induced
same,induction of VCIP expression,"[4]; AoSMC, 6 h, northern blot",did not
same,induction of VCIP expression,"[4]; CASMCs, 6 h, northern blot",Neither PMA nor VEGF^165 induced expression of VCIP
same,induction of VCIP expression,[4]; [7],equally able to induce expression of VCIP
NYRCRGDDSKVQE (also: acetylated) [acetylated NYRCRGDDSKVQE (VCIP-RGD)],detachment of attached cells from VCIP-RGD-coated wells,[5]; 5 nM,eventually completely detached from the wells
same,time until attached cells rounded up,"[5]; 5 nM, cells plated on VCIP-RGD-coated wells",≤ 5 min
NYRCRADDSK (CHAIN a peptide containing a mutated RGD sequence),"size, speed of formation and number of cell aggregates",[3],no reduction in cell aggregation
same,% cell aggregates,[3]; substance 10 nM,92 ± 5.7%
same,% cell aggregates,[3]; substance 30 nM,89 ± 7.5%
same,% cell aggregates,[3]; substance 50 nM,90 ± 7.2^a %
CCCCCCCCCCCCC/C=C/[C@@H](O)[C@@H](N)CO [sphingosine],effect on phosphatase activity against phosphatidic acid,[1],blocked

# Reference: patent US20050002904A1, “Uses of vascular endothelial growth factor and type I collagen inducible protein (VCIP)” (priority 2003, published 2005)
